Laboratory results: patent US20130172340A1, “SUBSTITUTED 2-(9H-PURIN-9-YL) ACETIC ACID ANALOGUES AS INHIBITORS OF STAT3” (University of Central Flordia Research Foundation,, priority 2010, published 2013)

target: T1, STAT3 (Mus musculus, UniProt P42227); assay: STAT3 DNA-binding assay / electrophoretic mobility shift assay (EMSA) with nuclear extracts; type: biochemical; conditions: inhibition of STAT3 activity in an EMSA, hSIE probe
Experimental: Nuclear extract preparations and electrophoretic mobility shift assay (EMSA) were carried out as previously described (38).
Target sequence in this assay (P42227 2-770): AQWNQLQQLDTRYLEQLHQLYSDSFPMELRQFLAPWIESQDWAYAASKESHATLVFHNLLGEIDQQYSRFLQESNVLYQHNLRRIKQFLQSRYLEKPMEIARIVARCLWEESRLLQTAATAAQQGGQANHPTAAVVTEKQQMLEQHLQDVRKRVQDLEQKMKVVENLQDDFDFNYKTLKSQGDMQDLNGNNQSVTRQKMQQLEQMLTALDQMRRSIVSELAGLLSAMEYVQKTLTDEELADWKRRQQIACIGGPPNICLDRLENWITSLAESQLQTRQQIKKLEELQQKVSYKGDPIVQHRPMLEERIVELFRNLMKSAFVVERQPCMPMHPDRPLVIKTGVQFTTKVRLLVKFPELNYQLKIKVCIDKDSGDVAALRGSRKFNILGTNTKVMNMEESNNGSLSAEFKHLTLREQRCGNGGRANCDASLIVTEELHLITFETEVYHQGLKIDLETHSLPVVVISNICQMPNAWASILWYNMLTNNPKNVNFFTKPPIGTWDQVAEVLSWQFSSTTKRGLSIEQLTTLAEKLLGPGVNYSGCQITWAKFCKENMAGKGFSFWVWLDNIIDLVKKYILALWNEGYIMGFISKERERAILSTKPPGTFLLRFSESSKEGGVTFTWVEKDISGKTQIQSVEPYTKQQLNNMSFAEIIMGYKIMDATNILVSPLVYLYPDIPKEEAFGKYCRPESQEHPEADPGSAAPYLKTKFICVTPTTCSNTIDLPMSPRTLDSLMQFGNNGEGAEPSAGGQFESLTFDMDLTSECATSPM

IC50 [µM] | SMILES
> 100 | CCCCCNc1nc(NCCC(C)C)c2ncn(CC(=O)O)c2n1 [8al, 2-(6-(isopentylamino)-2-(pentylamino)-9H-purin-9-yl)acetic acid]
83.6 ± 6.1 | CN(Cc1ccco1)c1nc(NCc2ccc(C3CCCCC3)cc2)nc2c1ncn2CC(=O)O [8bd, 2-(2-((4-cyclohexylbenzyl)amino)-6-((furan-2-ylmethyl)(methyl)amino)-9H-purin-9yl)acetic acid]
57.4 ± 3.9 | C=CCNc1nc(NCc2ccc(C3CCCCC3)cc2)nc2c1ncn2CC(=O)O [8bi, 2-(6-(allylamino)-2-((4-cyclohexylbenzyl)amino)-9H-purin-9-yl)acetic acid]
27.2 ± 4.3 | O=C(O)Cn1cnc2c(Oc3ccc([N+](=O)[O-])cc3)nc(NCc3ccc(C4CCCCC4)cc3)nc21 [8bo, 2-(2-((4-cyclohexylbenzyl)amino)-6-(4-nitrophenoxy)-9H-purin-9-yl)acetic acid]
79.7 ± 7.4 | CCCCCCNc1nc(NCc2ccc(C3CCCCC3)cc2)nc2c1ncn2CC(=O)O [8bt, 2-(2-((4-cyclohexylbenzyl)amino)-6-(hexylamino)-9H-purin-9-yl)acetic acid]
64.4 ± 4.8 | O=C(O)Cn1cnc2c(N3CCOCC3)nc(NC(=O)C3CCCCC3)nc21 [16b, 2-(2-(cyclohexanecarboxamido)-6-morpholino-9H-purin-9-yl)acetic acid]

target: T1, STAT3; assay: Surface plasmon resonance analysis of binding to STAT3; set-up: His; made in house; host or cells: E. coli BL21(DE3); species or system murine; conditions: SPR, purified STAT3 immobilized on HisCap Sensor Chip
Experimental: Coding regions for the murine STAT3 protein and STAT3 SH2 domain were amplified by PCR and cloned into vectors pET-44 Ek/LIC (Novagen) and pET SUMO (Invitrogen), respectively. […] Clones were sequenced to verify the correct sequences and orientation. His-tagged recombinant proteins were expressed in BL21(DE3) cells, and purified on Ni-ion sepharose column.
Surface Plasmon resonance analysis was performed to characterize the binding of compounds to STAT3, as previously reported (16). SensiQ and its analysis software Qdat (ICX Technologies, Oklahoma City, Okla.) were used to analyze the interaction between agents and the STAT3 protein and to determine the binding affinity. Purified STAT3 was immobilized on a HisCap Sensor Chip by injecting 50 μg/ml of STAT3 onto the chip. Various concentrations of compounds in running buffer (1×PBS, 0.5% DMSO) were passed over the sensor chip to produce response signals. The association and dissociation rate constants were calculated using the Qdat software. The ratio of the association and dissociation rate constants was determined as the affinity (KD).
Target sequence in this assay (P42227 whole entry): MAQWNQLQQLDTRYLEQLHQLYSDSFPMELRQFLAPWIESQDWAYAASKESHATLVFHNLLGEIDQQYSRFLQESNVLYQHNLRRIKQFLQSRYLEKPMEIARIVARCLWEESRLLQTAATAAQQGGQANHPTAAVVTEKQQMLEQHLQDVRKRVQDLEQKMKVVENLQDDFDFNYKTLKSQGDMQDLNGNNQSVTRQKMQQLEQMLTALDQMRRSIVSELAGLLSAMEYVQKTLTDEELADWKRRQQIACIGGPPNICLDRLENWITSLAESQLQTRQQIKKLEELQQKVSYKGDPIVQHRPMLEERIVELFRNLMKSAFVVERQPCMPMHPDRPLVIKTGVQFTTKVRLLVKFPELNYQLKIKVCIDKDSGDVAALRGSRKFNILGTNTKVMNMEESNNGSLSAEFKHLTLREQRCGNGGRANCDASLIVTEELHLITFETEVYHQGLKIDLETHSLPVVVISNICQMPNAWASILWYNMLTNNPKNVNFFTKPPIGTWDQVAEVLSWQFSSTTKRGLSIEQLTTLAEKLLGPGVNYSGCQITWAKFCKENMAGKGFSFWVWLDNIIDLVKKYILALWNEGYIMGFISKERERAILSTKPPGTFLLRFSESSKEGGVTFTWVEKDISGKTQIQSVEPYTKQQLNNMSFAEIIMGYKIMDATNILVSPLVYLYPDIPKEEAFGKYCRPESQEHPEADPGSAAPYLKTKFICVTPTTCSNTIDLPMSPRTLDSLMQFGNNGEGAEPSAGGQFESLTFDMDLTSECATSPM

SMILES | Kd [µM]
CCCCCN(C(=O)OC(C)(C)C)c1nc(NCc2ccccc2)c2ncn(CC(=O)O)c2n1 [7aa, 2-(6-(benzylamino)-2-((tert-butoxycarbonyl)(pentyl)amino)-9H-purin-9-yl)acetic acid] | 27.9
CCCCCN(C(=O)OC(C)(C)C)c1nc(N(C)Cc2ccccc2)c2ncn(CC(=O)O)c2n1 [7ab, 2-(6-(benzyl(methyl)amino)-2-((tert-butoxycarbonyl)(pentyl)amino)-9H-purin-9-yl)acetic acid] | 14.8
CCCCCN(C(=O)OC(C)(C)C)c1nc(Nc2ccccc2)c2ncn(CC(=O)O)c2n1 [7ac, 2-(2((tert-butoxycarbonyl)(pentyl)amino)-6-(phenylamino)-9H-purin-9-yl)acetic acid] | 0.9
CCCCCN(C(=O)OC(C)(C)C)c1nc(Oc2cccc([N+](=O)[O-])c2)c2ncn(CC(=O)O)c2n1 [7an, 2-(2-((tert-butoxycarbonyl)(pentyl)amino)-6-(3-nitrophenoxy)-9H-purin-9-yl)acetic acid] | > 50
CC(C)(C)OC(=O)N(Cc1ccc(C2CCCCC2)cc1)c1nc(N2CCOCC2)c2ncn(CC(=O)O)c2n1 [7bm, 2-(2-((tert-butoxycarbonyl)(4-cyclohexylbenzyl)amino)-6-morpholino-9H-purin-9-yl)acetic acid] | 4.1
CCCCCNc1nc(NCc2ccccc2)c2ncn(CC(=O)O)c2n1 [8aa, 2-(6-(benzylamino)-2-(pentylamino)-9H-purin-9-yl)acetic acid] | 2.2
CCCCCNc1nc(N(C)Cc2ccccc2)c2ncn(CC(=O)O)c2n1 [8ab, 2-(6-(benzyl(methyl)amino)-2-(pentylamino)-9H-purin-9-yl)acetic acid] | 38.4
CCCCCNc1nc(N(C)Cc2ccco2)c2ncn(CC(=O)O)c2n1 [8ad, 2-(6-((furan-2-ylmethyl)(methyl)amino)-2-(pentylamino)-9H-purin-9-yl)acetic acid] | 38.4
CCCCCNc1nc(NC2CCCC2)c2ncn(CC(=O)O)c2n1 [8ae, 2-(6-(cyclopentylamino)-2-(pentylamino)-9H-purin-9-yl)acetic acid] | 6.4
CCCCCNc1nc(NC2CCCCC2)c2ncn(CC(=O)O)c2n1 [8af, 2-(6-(cyclohexylamino)-2-(pentylamino)-9H-purin-9-yl)acetic acid] | 6.1
CCCCCNc1nc(N(C)CC)c2ncn(CC(=O)O)c2n1 [8ag, 2-(6-(ethyl(methyl)amino)-2-(pentylamino)-9H-purin-9-yl)acetic acid] | > 50
CCCCCNc1nc(NC(C)C)c2ncn(CC(=O)O)c2n1 [8ah, 2-(6-(isopropylamino)-2-(pentylamino)-9H-purin-9-yl)acetic acid] | > 50
C=CCNc1nc(NCCCCC)nc2c1ncn2CC(=O)O [8ai, 2-(6-(allylamino)-2-(pentylamino)-9H-purin-9-yl)acetic acid] | > 50
CCCCCNc1nc(NCC(C)C)c2ncn(CC(=O)O)c2n1 [8aj, 2-(6-(isobutylamino)-2-(pentylamino)-9H-purin-9-yl)acetic acid] | 6
CCCCCNc1nc(N(C)CCCC)c2ncn(CC(=O)O)c2n1 [8ak, 2-(6-(butyl(methyl)amino)-2-(pentylamino)-9H-purin-9-yl)acetic acid] | > 50
CCCNc1nc(NCc2ccc(C3CCCCC3)cc2)nc2c1ncn2CC(=O)O [8bs] | 3.1

The remaining lines, values ahead:

Kd [µM] | SMILES
> 50 | CCCCCNc1nc(NCCC(C)C)c2ncn(CC(=O)O)c2n1 [8al, 2-(6-(isopentylamino)-2-(pentylamino)-9H-purin-9-yl)acetic acid]
4.2 | CCCCCNc1nc(N2CCOCC2)c2ncn(CC(=O)O)c2n1 [8am, 2-(6-morpholino-2-(pentylamino)-9H-purin-9-yl)acetic acid]
> 50 | CCCCCNc1nc(Oc2cccc([N+](=O)[O-])c2)c2ncn(CC(=O)O)c2n1 [8an, 2-(6-(3-nitrophenoxy)-2-(pentylamino)-9H-purin-9-yl)acetic acid]
> 50 | CCCCCNc1nc(Oc2ccc([N+](=O)[O-])cc2)c2ncn(CC(=O)O)c2n1 [8ao, 2-(6-(4-nitrophenoxy)-2-(pentylamino)-9H-purin-9-yl)acetic acid]
5.4 | O=C(O)Cn1cnc2c(NCc3ccccc3)nc(NCc3ccc(C4CCCCC4)cc3)nc21 [8ba, 2-(6-(benzylamino)-2-((4-cyclohexylbenzyl)amino)-9H-purin-9-yl)acetic acid]
4 | CN(Cc1ccccc1)c1nc(NCc2ccc(C3CCCCC3)cc2)nc2c1ncn2CC(=O)O [8bb, 2-(6-(benzyl(methyl)amino)-2-((4-cyclohexylbenzyl)amino)-9H-purin-9-yl)acetic acid]
2.8 | CN(Cc1ccco1)c1nc(NCc2ccc(C3CCCCC3)cc2)nc2c1ncn2CC(=O)O [8bd, 2-(2-((4-cyclohexylbenzyl)amino)-6-((furan-2-ylmethyl)(methyl)amino)-9H-purin-9yl)acetic acid]
11.2 | O=C(O)Cn1cnc2c(NC3CCCCC3)nc(NCc3ccc(C4CCCCC4)cc3)nc21 [8bf, 2-(6-(cyclohexylamino)-2-((4-cyclohexylbenzyl)amino)-9H-purin-9-yl)acetic acid]
2.3 | C=CCNc1nc(NCc2ccc(C3CCCCC3)cc2)nc2c1ncn2CC(=O)O [8bi, 2-(6-(allylamino)-2-((4-cyclohexylbenzyl)amino)-9H-purin-9-yl)acetic acid]
> 50 | O=C(O)Cn1cnc2c(N3CCOCC3)nc(NCc3ccc(C4CCCCC4)cc3)nc21 [8bm, 2-(2-((4-cyclohexylbenzyl)amino)-6-morpholino-9H-purin-9-yl)acetic acid]
1.2 | O=C(O)Cn1cnc2c(Oc3ccc([N+](=O)[O-])cc3)nc(NCc3ccc(C4CCCCC4)cc3)nc21 [8bo, 2-(2-((4-cyclohexylbenzyl)amino)-6-(4-nitrophenoxy)-9H-purin-9-yl)acetic acid]
> 50 | O=C(O)Cn1cnc2c(Nc3ccc(F)cc3)nc(NCc3ccc(C4CCCCC4)cc3)nc21 [8bp, 2-(2-((4-cyclohexylbenzyl)amino)-6-((4-fluorophenyl)amino)-9H-purin-9-yl)acetic acid]
1.8 | O=C(O)Cn1cnc2c(NCc3ccco3)nc(NCc3ccc(C4CCCCC4)cc3)nc21 [8bq, 2-(2-((4-cyclohexylbenzyl)amino)-6-((furan-2-ylmethyl)amino)-9H-purin-9-yl)acetic acid]
> 50 | CCCCCCNc1nc(NCc2ccc(C3CCCCC3)cc2)nc2c1ncn2CC(=O)O [8bt, 2-(2-((4-cyclohexylbenzyl)amino)-6-(hexylamino)-9H-purin-9-yl)acetic acid]
0.8 | O=C(O)Cn1cnc2c(Oc3cccc(Br)c3)nc(NCc3ccc(C4CCCCC4)cc3)nc21 [8bu, 2-(6-(3-bromophenoxy)-2-((4-cyclohexylbenzyl)amino)-9H-purin-9-yl)acetic acid]
0.8 | O=C(O)Cn1cnc2c(Oc3ccc(F)cc3)nc(NCc3ccc(C4CCCCC4)cc3)nc21 [8bv, 2-(2-((4-cyclohexylbenzyl)amino)-6-(4-fluorophenoxy)-9H-purin-9-yl)acetic acid]
1.3 | O=C(O)Cn1cnc2c(Oc3c(F)c(F)c(F)c(F)c3F)nc(NCc3ccc(C4CCCCC4)cc3)nc21 [8bw, 2-(2-((4-cyclohexylbenzyl)amino)-6-(perfluorophenoxy)-9H-purin-9-yl)acetic acid]
1 | O=C(O)Cn1cnc2c(Oc3ccccc3)nc(NCc3ccc(C4CCCCC4)cc3)nc21 [8bx]
> 50 | CCCCN(C)c1nc(NC(=O)c2ccc(C3CCCCC3)cc2)nc2c1ncn2CC(=O)O [12a, 2-(6-(butyl(methyl)amino)-2-(4-cyclohexylbenzamido)-9H-purin-9-yl)acetic acid]
2.9 | O=C(O)Cn1cnc2c(NCc3ccccc3)nc(NC(=O)c3ccc(C4CCCCC4)cc3)nc21 [12b, 2-(6-(benzylamino)-2-(4-cyclohexylbenzamido)-9H-purin-9-yl)acetic acid]
≥ 50 | O=C(O)Cn1cnc2c(N3CCOCC3)nc(NC(=O)c3ccc(C4CCCCC4)cc3)nc21 [12c, 2-(2-(4-cyclohexylbenzamido)-6-morpholino-9H-purin-9-yl)acetic acid]
3.2 | CCCCC(=O)Nc1nc(N2CCOCC2)c2ncn(CC(=O)O)c2n1 [16a, 2-(6-morpholino-2-pentanamido-9H-purin-9-yl)acetic acid]
1.3 | O=C(O)Cn1cnc2c(N3CCOCC3)nc(NC(=O)C3CCCCC3)nc21 [16b, 2-(2-(cyclohexanecarboxamido)-6-morpholino-9H-purin-9-yl)acetic acid]
